Legend:
tissue PDH activity = experiment: Ex vivo PDH activation assay (liver and epididymal adipose tissue mitochondrial fractions after oral dosing); format: in vivo, Sprague-Dawley rats; conditions: 3 mg/kg, rat
Procedure: The action of test compound on tissue PDH activity was evaluated. NADH production was detected via p-iodonitrotetrazolium violet (INT)-coupled system to measure PDH activity.
Normal male Sprague-Dawley rats were randomly allocated m to the vehicle group and the test compound groups. The vehicle (0.5% aqueous methylcellulose solution, 5 mL/kg) or the test compound was orally administered to the rats. At 5 or 20 hr after administration, the rats were anesthetized with an intraperitoneal injection of sodium pentobarbital (60 mg/kg), and liver slices and epididymal adipose tissues were collected.
(§1) To the liver slices were rapidly added 9 volumes of ice-cold homogenization buffer (0.25 mol/L sucrose, 5 mmol/L tris(hydroxymethyl)aminomethane hydrochloride (pH 7.5), 2 mmol/L EDTA), and the mixtures were homogenized using a Polytron homogenizer. The homogenates were centrifuged at 600×g, 4° C. for 10 min to obtain the supernatant. The supernatants (1 mL) were centrifuged at 16,000×g, 4° C. for 10 min to collect the precipitates. The precipitates were washed by resuspension in the homogenization buffer (1 mL) and centrifuged in the same manner. The precipitates were frozen with liquid nitrogen and stored at −80° C. as the liver mitochondrial fraction.
as §1, with “adipose tissues” for “liver slices”, “3” for “9”, “of an” for “of”, “buffer,” for “buffer (0.25 mol/L sucrose, 5 mmol/L tris(hydroxymethyl)aminomethane hydrochloride (pH 7.5), 2 mmol/L EDTA),”, “supernatants” for “supernatants (1 mL)”, “adipose tissue” for “liver”
The mitochondrial fractions were thawed and suspended with the sample buffer (0.25 mol/L sucrose, 20 mmol/L tris(hydroxymethyl)aminomethane hydrochloride (pH 7.5), 50 mmol/L potassium chloride, and 1 mL/L 4-(1,1,3,3-tetramethylbutyl)phenyl-polyethylene glycol (Triton X-100)). Active PDH activity (PDHa activity) and total PDH activity (PDHt activity) were measured to evaluate the PDH activity. For the measurement of the PDHt activity, equal amounts of the mitochondrial suspension and the activation buffer (0.25 mol/L sucrose, 20 mmol/L tris(hydroxymethyl)aminomethane hydrochloride (pH 7.5), 50 mmol/L potassium chloride, 1 mL/L Triton X-100, 4 mmol/L calcium chloride, 40 mmol/L magnesium chloride, 10 mmol/L sodium dichloroacetate) were mixed, and the mixtures were incubated at 37° C. for 10 min. Forty microliters of the mitochondrial suspensions diluted with a sample buffer were added to a 96-well microplate for activity measurement and blank measurement. Then 180 μL of the reaction mixture (0.056 mmol/L potassium phosphate buffer (pH 7.5), 5.6 mmol/L DL-carnitine, 2.8 mmol/L NAD, 0.22 mmol/L thiamin pyrophosphate, 0.11 mmol/L Coenzyme A, 1.1 mL/L Triton X-100, 1.1 mmol/L magnesium chloride, 1.1 g/L bovine serum albumin, 0.67 mmol/L INT, 7.2 μmol/L phenazine methosulfate, 28 mmol/L sodium oxamate) was added to each well, and then 20 μL of 50 mmol/L sodium pyruvate for activity measurement or water for blank measurement were added. The mixtures were incubated at room temperature under shading. The absorbances at 500-750 nm, which were attributable to reduction of INT, the final electron acceptor, were measured using a microplate reader over time and the changes in the absorbance were calculated. The PDH activity was calculated by subtraction of the change in absorbance of the blank well from that of the activity measurement well. The percentage of the PDHa activity to the PDHt activity was calculated and taken as an index of the PDH activation.

[1] = Effect of repeated administration on HbA1c in ZDF rats; format: in vivo, Zucker Diabetic Fatty rats; conditions: 1 mg/kg oral once daily, day 27 of administration, vehicle 4.4 ± 0.4, p < 0.05 vs. vehicle
Procedure: Zucker Diabetic Fatty rats (male, 7-week-old, CHARLES RIVER LABORATORIES JAPAN INC.), an animal model for type 2 diabetes, given a purified diet (5.9% fat diet, Oriental Yeast Co., Ltd.) were allocated to the vehicle group and the test compound groups so that no bias occurred in the plasma glucose and insulin levels, HbA1c levels and body weights. Repeated oral doses of the test compound (1 mg/kg/5 mL) were administered to the rats once daily at 3 hr before the dark period. A 0.5% aqueous methylcellulose solution was orally administered in the same manner to the rats of the vehicle group. On day 27 of administration, blood samples were collected from the tail vein and HbA1c level (%) was measured. Statistical analysis was performed by Dunnett's test. Values of p<0.05 were considered statistically significant.

## C[C@H](O)COc1cc(-c2cnn(C(C)(C)C(N)=O)c2)c2c(c1)[C@@](O)(C(F)(F)F)c1ccccc1-2 [compound (2), 2-(4-{(9R)-9-hydroxy-2-[(2S)-2-hydroxypropoxy]-9-(trifluoromethyl)-9H-fluoren-4-yl}-1H-pyrazol-1-yl)-2-methylpropanamide]
Tissue PDH activity; adipose tissue, 5 hr after oral administration
  PDHa activity (% PDHt activity): 72 ± 4 % PDHt activity
Tissue PDH activity; adipose tissue, 20 hr after oral administration
  PDHa activity (% PDHt activity): 44 ± 6 % PDHt activity
Tissue PDH activity; liver, 5 hr after oral administration
  PDHa activity (% PDHt activity): 67 ± 11 % PDHt activity
Tissue PDH activity; liver, 20 hr after oral administration
  PDHa activity (% PDHt activity): 41 ± 11 % PDHt activity
[1]
  HbA1c (%): 3.9 ± 0.5 %

— US20150018403A1, “FLUORENE-AMIDE COMPOUNDS AND PHARMACEUTICAL USE THEREOF” (JAPAN TOBACCO INC., priority 2013, published 2015)
